According to patent publication US6737425B1, “N,N-substituted cyclic amine derivatives” (Eisai Co., Ltd., priority 1998, dated 2004):

Tested on: voltage-dependent calcium channels (cerebral cortex synaptosome)
Assay: Measurement of voltage-dependent calcium channel activity by the use of a fluorescent pigment (fura 2)
Type: cell-based
Details: rat cerebral cortex synaptosome, fura 2, KCl stimulation, compound incubated 10 minutes
Protocol: Measurement of Voltage-dependent Calcium Channel Activity by the use of a Fluorescent Pigment (fura 2)
Cerebral cortexes were removed from cut rat brains and disrupted roughly with scissors. These were introduced into a homogenizer, homogenized in 0.3 M saccharose and centrifuged at 4° C. (1,500 g×10 min). The resulting supernatant was further centrifuged at 4° C. (10,000 g×20 min). The resulting precipitates were suspended in 0.3 M saccharose. The suspension was layered on 0.8 M saccharose and centrifuged (10,000 g×30 min.).
4 μM fura 2/AM (Dojin Ltd.) was suspended in solution A to prepare a loading solution. To the synaptosome solution prepared in the method described above was added an equal volume of the loading solution, and the mixture was incubated for 40 minutes at room temperature.
As comparative and control compound, verapamil hydrochloride was used.

SMILES | IC50 [µM]
COc1cc(F)ccc1OCCN1CCN(CCCC(C#N)(c2ccccc2)C(C)C)CC1 (centres unmarked) [Example 88, 1-[(4-Cyano-5-methyl-4-phenyl)hexyl]-4-[2-(2-methoxy-4-fluorophenoxy)ethyl]piperazine] | 4.9
CC(C)N(CCN1CCN(CCCC(C#N)(c2ccccc2)C(C)C)CC1)c1ccccc1 (centres unmarked) [Example 89, 1-[(4-Cyano-5-methyl-4-phenyl)hexyl]-4-[2-(N-isopropylanilino)ethyl]piperazine] | 2.7
CC(C)C(C#N)(CCCN1CCN(CCN(c2ccccc2)C2CCCCC2)CC1)c1ccccc1 (centres unmarked) [Example 90, 1-[(4-Cyano-5-methyl-4-phenyl)hexyl]-4-[2-(N-cyclohexylanilino)ethyl]piperazine] | 2.6
CC(C)c1ccc(N(C)CCN2CCN(CCCC(C#N)(c3ccccc3)C(C)C)CC2)cc1 (centres unmarked) [Example 91, 1-[(4-Cyano-5-methyl-4-phenyl)hexyl]-4-{2-[N-methyl(4-isopropylanilino)ethyl]}piperazine] | 2.1
CC(C)c1cccc(N(C)CCN2CCN(CCCC(C#N)(c3ccccc3)C(C)C)CC2)c1 (centres unmarked) [Example 92, 1-[(4-Cyano-5-methyl-4-phenyl)hexyl]-4-{2-[N-methyl(3-Isopropylanilino)ethyl]}piperazine] | 1.8
CC(C)c1ccccc1N(C)CCN1CCN(CCCC(C#N)(c2ccccc2)C(C)C)CC1 (centres unmarked) [Example 93, 1-[(4-Cyano-5-methyl-4-phenyl)hexyl]-4-{2-[N-methyl(2-Isopropylanilino)ethyl]}piperazine] | 2.4
CC(C)C(C#N)(CCCN1CCN(CCOc2ccc3c(c2)OCO3)CC1)c1ccccc1 (centres unmarked) [Example 94, 1-[(4-Cyano-5-methyl-4-phenyl)hexyl]-4-{2-[3,4-(methylenedioxy)phenoxy]ethyl}piperazine] | 6.1
CC(C)C(C#N)(CCCN1CCN(CCOc2ccc3ncccc3c2)CC1)c1ccccc1 (centres unmarked) [Example 95, 1-[(4-Cyano-5-methyl-4-phenyl)hexyl]-4-[2-(6-quinolyloxy)ethyl]piperazine] | 11
CC(C)C(C#N)(CCCN1CCN(CCOc2cccc3cnccc23)CC1)c1ccccc1 (centres unmarked) [Example 96, 1-[(4-Cyano-5-methyl-4-phenyl)hexyl]-4-[2-(5-isoquinolyloxy)ethyl]piperazine] | 5.4
CC(CCC(C#N)(c1ccccc1)C(C)C)N1CCN(CCOc2ccc(F)cc2)CC1 (centres unmarked) [Example 97, 1-[{2-(5-Cyano-6-methyl-5-phenyl)heptyl}]-4-[2-(4-fluorophenoxy)ethyl]piperazine] | 3.9
CCCC(CCC(C#N)(c1ccccc1)C(C)C)N1CCN(CCOc2ccc(F)cc2)CC1 (centres unmarked) [Example 98, 1-{[4-(7-Cyano-8-methyl-7-phenyl)nonyl]}-4-[2-(4-fluorophenoxy)ethyl]piperazine] | > 16
CC(C)C(C#N)(CCCN1CCN(CCOc2ccncc2)CC1)c1ccccc1 (centres unmarked) [Example 99, 1-[(4-Cyano-5-methyl-4-phenyl)hexyl]-4-[2-(4-pyridyloxy)ethyl]piperazine] | > 16
CC(C)C(C#N)(CCCN1CCN(CCOc2cccnc2)CC1)c1ccccc1 (centres unmarked) [Example 100, 1-[(4-Cyano-5-methyl-4-phenyl)hexyl]-4-[2-(3-pyridyloxy)ethyl]piperazine] | > 16
CC(C)C(C#N)(CCCN1CCN(CCOc2cccc3ncccc23)CC1)c1ccccc1 (centres unmarked) [Example 101, 1-[(4-Cyano-5-methyl-4-phenyl)hexyl]-4-[2-(5-quinolyloxy)ethyl]piperazine] | 9.2
CC(C)C(C#N)(CCCN1CCN(CCOc2ccc(C(F)(F)F)cc2)CC1)c1ccccc1 (centres unmarked) [Example 102, 1-[(4-Cyano-5-methyl-4-phenyl)hexyl]-4-[2-(4-trifluoromethylphenoxy)ethyl]piperazine] | 2.7
CC(C)C(C#N)(CCCN1CCN(CCOc2cccc3ccccc23)CC1)c1ccccc1 (centres unmarked) [Example 103, 1-[(4-Cyano-5-methyl-4-phenyl)hexyl]-4-[2-(1-naphthyloxy)ethyl]piperazine] | 2.5
CCC(CN1CCN(CCCC(C#N)(c2ccccc2)C(C)C)CC1)Oc1ccc(F)cc1 (centres unmarked) [Example 104, 1-[(4-Cyano-5-methyl-4-phenyl)hexyl]-4-[2-(4-fluorophenoxy)butyl]piperazine] | 2.2
CC(C)C(C#N)(CCCN1CCN(CCOc2ncnc3ccccc23)CC1)c1ccccc1 (centres unmarked) [Example 105, 1-[(4-Cyano-5-methyl-4-phenyl)hexyl]-4-[2-(4-quinazolinyloxy)ethyl]piperazine] | > 16

SMILES | IC50 [µM]
CC(C)C(C#N)(CCCN1CCN(CCOc2ccc(-c3cccnc3)cc2)CC1)c1ccccc1 (centres unmarked) [Example 106, 1-[(4-Cyano-5-methyl-4-phenyl)hexyl]-4-{2-[4-(3-pyridyl)phenoxy]ethyl}piperazine] | 7
CC(C)C(C#N)(CCCN1CCN(CCOc2cccc(-c3cccnc3)c2)CC1)c1ccccc1 (centres unmarked) [Example 107, 1-[(4-Cyano-5-methyl-4-phenyl)hexyl]-4-{2-[3-(3-pyridyl)phenoxy]ethyl}piperazine] | 4.1
CC(C)C(C#N)(CCCN1CCN(CCOc2ccc(Br)cc2)CC1)c1ccccc1 (centres unmarked) [Example 108, 1-[(4-Cyano-5-methyl-4-phenyl)hexyl]-4-[2-(4-bromophenoxy)ethyl]piperazine] | 3.3
CC(C)C(C#N)(CCCN1CCN(CCOc2cccc(Br)c2)CC1)c1ccccc1 (centres unmarked) [Example 109, 1-[(4-Cyano-5-methyl-4-phenyl)hexyl]-4-[2-(3-bromophenoxy)ethyl]piperazine] | 3.3
CC(C)C(C#N)(CCCN1CCN(CCOc2ccccc2Br)CC1)c1ccccc1 (centres unmarked) [Example 110, 1-[(4-Cyano-5-methyl-4-phenyl)hexyl]-4-[2-(2-bromophenoxy)ethyl]piperazine] | 3.5
CC(C)C(C#N)(CCCN1CCN(CCOc2ccc(-n3ccnc3)cc2)CC1)c1ccccc1 (centres unmarked) [Example 111, 1-[(4-Cyano-5-methyl-4-phenyl)hexyl]-4-{2-[4-(imidazol-1-yl)phenoxy]ethyl}piperazine] | > 16
CC(C)C(C#N)(CCCN1CCN(CCOc2ncccn2)CC1)c1ccccc1 (centres unmarked) [Example 112, 1-[(4-Cyano-5-methyl-4-phenyl)hexyl]-4-[2-(2-pyrimidinyloxy)ethyl]piperazine] | > 16
CC(C)C(C#N)(CCCN1CCN(CCOc2ccccc2-c2cccnc2)CC1)c1ccccc1 (centres unmarked) [Example 113, 1-[(4-Cyano-5-methyl-4-phenyl)hexyl]-4-{2-[2-(3-pyridyl)phenoxy]ethyl}piperazine] | 4.5
CC(C)C(C#N)(CCCN1CCN(CCOc2ccc(F)cc2)CC1)c1ccc(C#N)s1 (centres unmarked) [Example 114, 1-[4-Cyano-5-methyl-4-(2-cyano-5-thienyl)hexyl]-4-[2-(4-fluorophenoxy)ethyl]piperazine] | 6.8
CC(C)C(C#N)(CCCN1CCN(CCOc2cccc(F)c2)CC1)c1ccc(C#N)s1 (centres unmarked) [Example 115, 1-[4-Cyano-5-methyl-4-(2-cyano-5-thienyl)hexyl]-4-[2-(3-fluorophenoxy)ethyl]piperazine] | 5.8
CC(C)C(C#N)(CCCN1CCN(CCOc2cccc(F)c2)CC1)c1cccs1 (centres unmarked) [Example 116, 1-[4-Cyano-5-methyl-4-(2-thienyl)hexyl]-4-[2-(3-fluorophenoxy)ethyl]piperazine] | 5.5
CC(C)C(C#N)(CCCN1CCN(CCOc2cccc(-c3ccsc3)c2)CC1)c1ccccc1 (centres unmarked) [Example 117, 1-[(4-Cyano-5-methyl-4-phenyl)hexyl]-4-{2-[3-(3-thienyl)phenoxy]ethyl}piperazine] | 3.2
Cc1cccc(/C=C/c2ccccc2OCCN2CCN(CCCC(C#N)(c3ccccc3)C(C)C)CC2)n1 (centres unmarked) [Example 118, 1-[(4-Cyano-5-methyl-4-phenyl)hexyl]-4-{2-[2-(6-methyl-2-pyridyl)vinylphenoxyl]ethyl}piperazine] | 6.4
CC(C)C(C#N)(CCCN1CCN(CCOc2cccc(C#N)c2)CC1)c1ccccc1 (centres unmarked) [Example 119, 1-[(4-Cyano-5-methyl-4-phenyl)hexyl]-4-[2-(3-cyanophenoxy)ethyl]piperazine] | 7.7
CC(C)C(C#N)(CCCN1CCN(CCOc2cccc(-c3ccccc3)c2)CC1)c1ccccc1 (centres unmarked) [Example 120, 1-[(4-Cyano-5-methyl-4-phenyl)hexyl]-4-[2-(3-phenylphenoxy)ethyl]piperazine] | 4.1
CC(C)C(C#N)(CCCN1CCN(CCOc2cccc(/C=C/C#N)c2)CC1)c1ccccc1 (centres unmarked) [Example 121, 1-[(4-Cyano-5-methyl-4-phenyl)hexyl]-4-{2-[3-(2-cyanovinyl)phenoxy]ethyl}piperazine] | 6.8
CC(C)C(C#N)(CCC(=O)N1CCN(CCOc2ccc(F)cc2)CC1)c1ccccc1 (centres unmarked) [Example 122, 1-[(4-Cyano-5-methyl-4-phenyl)hexanoyl]-4-[2-(4-fluorophenoxy)ethyl]piperazine] | 12
